Laboratory results: PubChem BioAssay (NCI)
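Here, GI50 denotes the concentration required for 50% inhibition of growth. The concentration for full growth arrest is given as TGI.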

Legend:
Assay in all cases: growth of human tumour cells (NCI), 384-well format
NCI-H460 NSCLC = test system: NCI-H460 NSCLC
T-47D breast = test system: T-47D breast
SF-268 CNS = test system: SF-268 CNS
SK-OV-3 ovarian = test system: SK-OV-3 ovarian
NCI-H226 lung = test system: NCI-H226 lung
SNB-75 CNS = test system: SNB-75 CNS
786-0 renal = test system: 786-0 renal
MCF7 breast = test system: MCF7 breast
SF-539 CNS = test system: SF-539 CNS
HL-60(TB) leukemia = test system: HL-60(TB) leukemia
EKVX NSCLC = test system: EKVX NSCLC
MDA-MB-468 breast = test system: MDA-MB-468 breast
HCT-116 colon = test system: HCT-116 colon
HOP-92 NSCLC = test system: HOP-92 NSCLC
MOLT-4 leukemia = test system: MOLT-4 leukemia
SNB-19 CNS = test system: SNB-19 CNS
RPMI-8226 leukemia = test system: RPMI-8226 leukemia
U251 glioblastoma = test system: U251 glioblastoma
A498 renal = test system: A498 renal
K-562 leukemia = test system: K-562 leukemia
RXF 393 renal = test system: RXF 393 renal
BT-549 breast = test system: BT-549 breast
NCI/ADR-RES ovarian = test system: NCI/ADR-RES ovarian
PC-3 prostate = test system: PC-3 prostate
HCC-2998 colon = test system: HCC-2998 colon

Work on COc1cc(C(=O)NC2CCN(C)CC2)c(F)cc1Nc1ncc2c(n1)N(C1CCCC1)CC(F)(F)C(=O)N2C yielded a TGI (NCI-H460 NSCLC) of 14.7 nM, a GI50 (T-47D breast) of 26.1 nM and a TGI (T-47D breast) of 1270 nM. It also gave a GI50 (SF-268 CNS) of under 10 nM, a TGI (SF-268 CNS) of under 10 nM and a GI50 (SK-OV-3 ovarian) of 16.7 nM. For the same compound, the TGI (SK-OV-3 ovarian) was 1160 nM, the GI50 (NCI-H226 lung) was 1330 nM and the TGI (NCI-H226 lung) was 6330 nM. The GI50 (SNB-75 CNS) was 47.2 nM, the TGI (SNB-75 CNS) was 3280 nM and the GI50 ([…]-0 renal) was 30.8 nM. It also gave a TGI (786-0 renal) of 1430 nM, a GI50 (MCF7 breast) of under 10 nM and a TGI (MCF7 breast) of 1510 nM. The GI50 (SF-539 CNS) was 20.5 nM, the TGI (SF-539 CNS) was 1060 nM and the GI50 (HL-60(TB) leukemia) was under 10 nM. For the same compound, the TGI (HL-60(TB) leukemia) was under 10 nM, the GI50 (EKVX NSCLC) was 91.7 nM and the TGI (EKVX NSCLC) was 6980 nM. The GI50 (MDA-MB-468 breast) was under 10 nM, the TGI (MDA-MB-468 breast) was under 10 nM and the GI50 (HCT-116 colon) was under 10 nM. The TGI (HCT-116 colon) was 1340 nM, the GI50 (HOP-92 NSCLC) was 41.3 nM and the TGI (HOP-92 NSCLC) was 1400 nM. The GI50 (MOLT-4 leukemia) was under 10 nM, the TGI (MOLT-4 leukemia) was under 10 nM and the GI50 (SNB-19 CNS) was 17.5 nM. It also gave a TGI (SNB-19 CNS) of 5750 nM, a GI50 (RPMI-8226 leukemia) of 16.3 nM and a TGI (RPMI-8226 leukemia) of 31.5 nM. It also gave a GI50 (U251 glioblastoma) of under 10 nM, a TGI (U251 glioblastoma) of 2360 nM and a GI50 (A498 renal) of 99.5 nM. For the same compound, the TGI (A498 renal) was 10700 nM, the GI50 (K-562 leukemia) was under 10 nM and the TGI (K-562 leukemia) was 53.7 nM. For the same compound, the GI50 (RXF 393 renal) was under 10 nM, the TGI (RXF 393 renal) was 27.4 nM and the GI50 (BT-549 breast) was 30.9 nM. For the same compound, the TGI (BT-549 breast) was 242 nM, the GI50 (NCI/ADR-RES ovarian) was 50.9 nM and the TGI (NCI/ADR-RES ovarian) was 206 nM. For the same compound, the GI50 (PC-3 prostate) was 33.4 nM, the TGI (PC-3 prostate) was 13100 nM and the GI50 (HCC-2998 colon) was 13.5 nM. For the same compound, the TGI (HCC-2998 colon) was 51.5 nM.
